Measurements taken from US20230312478A1, “HERBICIDAL COMPOUNDS” (SYNGENTA CROP PROTECTION AG, priority 2020, published 2023).

How the values were obtained:
Type in all cases: in vivo
Conditions in all cases: 250 g/ha, evaluated visually after 13 days, scale 0-5
[1] = test system: Ipomoea hederacea (IPOHE); assay: Herbicidal efficacy, application pre-emergence; set-up: key: 5 = total damage to plant; 0 = no damage to plant
Description: (§1) Seeds of a variety of test species [Ipomoea hederacea (IPOHE); Zea mays (ZEAMX); Echinochloa crus-galli (ECHCG); Setaria faberi (SETFA); Abutilon theophrasti (ABUTH); Amaranthus retroflexus (AMARE)] were sown in standard sterilised soil in pots. After cultivation for one day (pre-emergence) or after 8 days cultivation (post-emergence) under controlled conditions in a glasshouse (at 24/16° C., day/night; 14 hours light; 65 % humidity), the plants were sprayed with an aqueous spray solution derived from the formulation of the technical active ingredient in acetone / water (50:50) solution containing 0.5% Tween 20 (polyoxyethelyene sorbitan monolaurate, CAS RN 9005-64-5), subsequently diluted in water, and sprayed to give the stated application rate.
(§2) The test plants were then grown under controlled conditions in a glasshouse (at 24/16° C., day/night; 14 hours light; 65 % humidity) and watered twice daily.
(§3) After 13 days for pre- and post-emergence, the test was evaluated visually for percentage phytotoxicity to the plant (where 5 = total damage to plant; 0 = no damage to plant).

[2] = test system: Echinochloa crus-galli (ECHCG); assay: Herbicidal efficacy, application pre-emergence; set-up: key: 5 = total damage to plant; 0 = no damage to plant
Description: as §1, §2, §3

[3] = test system: Setaria faberi (SETFA); assay: Herbicidal efficacy, application pre-emergence; set-up: key: 5 = total damage to plant; 0 = no damage to plant
Description: as §1, §2, §3

[4] = test system: Amaranthus retroflexus (AMARE); assay: Herbicidal efficacy, application pre-emergence; set-up: key: 5 = total damage to plant; 0 = no damage to plant
Description: as §1, §2, §3

[5] = test system: Abutilon theophrasti (ABUTH); assay: Herbicidal efficacy, application pre-emergence; set-up: key: 5 = total damage to plant; 0 = no damage to plant
Description: as §1, §2, §3

[6] = test system: Ipomoea hederacea (IPOHE); assay: Herbicidal efficacy, application post-emergence
Description: as §1, §2, §3

[7] = test system: Echinochloa crus-galli (ECHCG); assay: Herbicidal efficacy, application post-emergence
Description: as §1, §2, §3

[8] = test system: Setaria faberi (SETFA); assay: Herbicidal efficacy, application post-emergence
Description: as §1, §2, §3

[9] = test system: Zea mays (ZEAMX); assay: Herbicidal efficacy, application post-emergence
Description: as §1, §2, §3

[10] = test system: Amaranthus retroflexus (AMARE); assay: Herbicidal efficacy, application post-emergence
Description: as §1, §2, §3

[11] = test system: Abutilon theophrasti (ABUTH); assay: Herbicidal efficacy, application post-emergence; set-up: key: 5 = total damage to plant; 0 = no damage to plant
Description: as §1, §2, §3

[12] = test system: Zea mays (ZEAMX); assay: Herbicidal efficacy, application pre-emergence
Description: as §1, §2, §3

## CCc1cc(C2CN(C)C(=O)C2C(=O)Nc2ccc(F)nc2F)nn1C(F)F (stereo not drawn) [Compound 82, 4-[1-(difluoromethyl)-5-ethyl-pyrazol-3-yl]-N-(2,6-difluoro-3-pyridyl)-1-methyl-2-oxo-pyrrolidine-3-carboxamide]
[1]
  phytotoxicity to the plant, IPOHE: 3
[2]
  phytotoxicity to the plant, ECHCG: 5
[3]
  phytotoxicity to the plant, SETFA: 5
[4]
  phytotoxicity to the plant, AMARE: 1
[5]
  phytotoxicity to the plant, ABUTH: 1
[6]
  phytotoxicity to the plant, IPOHE: 4
[7]
  phytotoxicity to the plant, ECHCG: 4
[8]
  phytotoxicity to the plant, SETFA: 4
[9]
  phytotoxicity to the plant, ZEAMX: 4
[10]
  phytotoxicity to the plant, AMARE: 1
[11]
  phytotoxicity to the plant, ABUTH: 1
[12]
  phytotoxicity to the plant, ZEAMX: 3

## CCc1cc(C2CN(C)C(=S)C2C(=O)Nc2ccc(F)nc2F)nn1C(F)F (stereo not drawn) [Compound 86, 4-[1-(difluoromethyl)-5-ethyl-pyrazol-3-yl]-N-(2,6-difluoro-3-pyridyl)-1-methyl-2-thioxo-pyrrolidine-3-carboxamide]
[1]
  phytotoxicity to the plant, IPOHE: 0
[2]
  phytotoxicity to the plant, ECHCG: 5
[3]
  phytotoxicity to the plant, SETFA: 5
[4]
  phytotoxicity to the plant, AMARE: 2
[5]
  phytotoxicity to the plant, ABUTH: 1
[6]
  phytotoxicity to the plant, IPOHE: 1
[7]
  phytotoxicity to the plant, ECHCG: 4
[8]
  phytotoxicity to the plant, SETFA: 4
[9]
  phytotoxicity to the plant, ZEAMX: 3
[10]
  phytotoxicity to the plant, AMARE: 1
[11]
  phytotoxicity to the plant, ABUTH: 3
[12]
  phytotoxicity to the plant, ZEAMX: 1

## CCc1cc(C2CN(C)C(=O)C2C(=O)Nc2ccc(F)cc2F)nn1C(F)F (stereo not drawn) [Compound 58, 4-[1-(difluoromethyl)-5-ethyl-pyrazol-3-yl]-N-(2,4-difluorophenyl)-1-methyl-2-oxo-pyrrolidine-3-carboxamide]
[1]
  phytotoxicity to the plant, IPOHE: 1
[2]
  phytotoxicity to the plant, ECHCG: 5
[3]
  phytotoxicity to the plant, SETFA: 5
[4]
  phytotoxicity to the plant, AMARE: 0
[5]
  phytotoxicity to the plant, ABUTH: 0
[6]
  phytotoxicity to the plant, IPOHE: 3
[7]
  phytotoxicity to the plant, ECHCG: 4
[8]
  phytotoxicity to the plant, SETFA: 4
[9]
  phytotoxicity to the plant, ZEAMX: 2
[10]
  phytotoxicity to the plant, AMARE: 1
[11]
  phytotoxicity to the plant, ABUTH: 0
[12]
  phytotoxicity to the plant, ZEAMX: 3
